Tests used:
Assay type in all cases: biochemical
poly(dC) = assay: Apparent miscoding on homopolymeric template poly(dC); settings: for Relative rate of incorporation of rGTP vs non-complementary rNTPs / Relative rate of incorporation GTP/ATP / Relative rate of incorporation GTP/CTP / Relative rate of incorporation GTP/UTP: poly(dC); for Relative rate of incorporation GTP/ATP / Relative rate of incorporation GTP/CTP / Relative rate of incorporation GTP/UTP: Mg^2+ buffer
Experimental: (§1) Transcription reactions: Transcription reactions were carried out in 40 mM Tris-Cl pH 8.0, 15 mM MgCl2, and 5 mM DTT or 20 mM Manganese Citrate pH 8.0, 5 mM DTT at 37° C. Template, polymerase, and NTP concentrations were as indicated in the legends to the figures and tables. Relative activity determinations were made by taking 4 μl aliquots of reactions at 5, 10, and 20 minute time points and spotting on to DE81 filter paper. Unincorporated nucleotides were separated from incorporated nucleotides by washing the filter paper with 0.5 M KH2PO4 pH 7.0 and retained radioactive nucleotide was quantitated with a Molecular Dynamics phosphorimager. To evaluate rNTP/dNTP selectivity, reactions were run with 4 rNTPs and pT75 as template and α-P^32 rNTPs or α-P^32 dNTPs were used to label the transcripts. The relative rate of incorporation of an rNTP vs. its cognate dNTP was determined from the relative percentages of labeled rNTP vs. dNTP incorporated into DE81 retainable RNA at 5, 10, and 20 minute time points. Apparent miscoding frequencies were determined similarly, though in this instance the template was a single-stranded homopolymer and the reaction contained the complementary unlabeled rNTP, and complementary α-P^32 rNTP or one of the 3 non-complementary α-P^32 rNTPs. The relative percentages of labeled complementary vs. non-complementary rNTPs incorporated at 5, 10 and 20 minute time points gave an apparent miscoding rate. The rNTP/dNTP selectivity assay was used to test the following T7 RNAP mutants for effects on substrate discrimination: D537S, D537E, S539A, R5S1S, D552S, R627S, K631S, L637A, Y639S, Y639F, Y639A, G640A, F644A, G645A, Q649S, […], H811S, H811A, D812A, D812E, D812S, D812N, D879E+ΔF882+ΔA883, D879E+A881T+ΔA883, D879E+F884+A885, D879E+F882Y, D879E+ΔA883, D879E+F882W, D879E.
An increase in miscoding would be reflected in an increase in the rate of incorporation of the non-complementary NTP into RNA.
Numbers are averages from 2 experiments and reflect the ratio of the percentages of labeled rNTPs incorporated into RNA in reactions in which unlabeled complementary rNTPs were in great excess (0.5 mM) to labeled complementary or non-complementary rNTPs. Templates were at 0.1 mg/ml. Polymerases were at 10^−8 M in Mg^2+ buffer and 10^−7 M in Mn^2+ buffer.
*The upper number refers to results obtained in Mg^2+ buffer, the lower number to results in Mn^2+ buffer. n.d.: G640A, Y639A, Y639S were poorly active in Mn^2+ buffer, or on poly(dT) under all conditions.

poly(dI)·poly(dC) = assay: Relative activity on poly(dI)·poly(dC)
Experimental: as §1
DNA and RNA synthesis on homopolymeric templates: T7 RNAP will synthesize poly(rG) RNAs on poly(dC) templates (Bonner, et al., 1994; Ikeda and Richardson 1987). The activity of the W.T. and mutant polymerases were measured on poly(dI)-poly(dC) with rGTP, dGTP, dGTP+rGMP (see, Table III).
Numbers give mean and range from 3 experiments. Templates were at 0.2 mg/ml, polymerases at 10^-8 M. Labeling NTPs were α-P^32 rGTP, α-P^32 dGTP, α-P^32 rATP, α-P^32 dATP, as appropriate. rNTPs or rNMPs at 0.5 mM; dNTPs at 1 mM.

[1] = 2′-group discrimination of M635 mutants; settings: wild-type or Y639F T7 RNAP background
Experimental: Other mutations: It is conceivable that, in the absence of a bound rNTP, a hydrogen bond forms between Y639 and some other active site side chain. The possibility of an interaction between M635 and Y639 was tested since M635 and Y639 are close and M635 approaches the ribose in our models of NTP in T7 RNAP (Huang, et al., submitted for publication). This position is methionine in the T7 RNAP class of RNAPs (McAllister, W.T., 1993), but is either tyrosine or phenylalanine in the homologous DNAPs, and in the DNAP mutants at this site (i.e., positions homologous to position 762 in E. coli DNAP I) that affect dNTP/ddNTP discrimination (Tabor. S., and Richardson, C. C., European patent application, 1994). […] Additional studies will reveal whether these M635 mutations have other effects, such as effects on discrimination at the 3′-position of the sugar, or effects on discrimination with respect to NTPs with other substituents, such as fluorine at the 2′ position of the sugar. Also, studies on similar double mutations at the homologous sites in the homologous class I DNAPs will reveal the effects of such double mutations on discrimination at the 2′- and 3′-positions of the sugar; specifically, these studies will reveal whether class I DNAPs having a phenylalanine at the position homologous to amino acid position 766 in E. coli DNAP I have reduced discrimination for rNTPs if the amino acid is methionine or tyrosine at the position homologous to amino acid position 762 in E. coli DNAP I.

pT75 = assay: Activity with NTPs containing different 2′-substituents; design: unit not given here
Experimental: Activity was determined with pT75 as template but with one of the rNTPs replaced with a dNTP or a 2′-modified NTP. The labeling NTP was UTP (in reactions with 2′-modified CTPs or ATPs) or CTP (in reactions with 2′-modified UTPs). Y639F and Y639M represent enzymes with substitutions of the wild-type (W.T.) tyrosine at position 639 by phenyalanine (F) or methionine (M), respectively.

[2] = rGTP, mean and range from 3 experiments

Substance: Y639A: poorly active non-conservative tyrosine 639 mutation of T7 RNAP
- Activity in Mn^2+ buffer, or on poly(dT) under all conditions (poly(dC)): poorly active
- Relative rate of incorporation of rGTP vs non-complementary rNTPs (poly(dC)): 184 fold
- Relative rate of incorporation GTP/ATP (poly(dC)): >184
- Relative rate of incorporation GTP/CTP (poly(dC)): >184
- Relative rate of incorporation GTP/UTP (poly(dC)): >184
- Relative activity on poly(dI)·poly(dC) (poly(dI)·poly(dC); dGTP): 5.3 (4.8-5.5)
- Relative activity on poly(dI)·poly(dC) (poly(dI)·poly(dC); dGTP + rGMP): 25 (17-30)
- Relative activity on poly(dI)·poly(dC) (poly(dI)·poly(dC); [2]): 145 (142-151)

Substance: G640A: T7 RNAP mutant adjacent to Y639 that does not affect substrate discrimination [reference compound]
- Activity in Mn^2+ buffer, or on poly(dT) under all conditions (poly(dC)): poorly active
- Relative rate of incorporation GTP/ATP (poly(dC)): 388
- Relative rate of incorporation GTP/CTP (poly(dC)): 508
- Relative rate of incorporation GTP/UTP (poly(dC)): >1320
- Relative activity on poly(dI)·poly(dC) (poly(dI)·poly(dC); dGTP): <5
- Relative activity on poly(dI)·poly(dC) (poly(dI)·poly(dC); dGTP + rGMP): <5
- Relative activity on poly(dI)·poly(dC) (poly(dI)·poly(dC); [2]): 240 (200-270)

Substance: Y639S: poorly active non-conservative tyrosine 639 mutation of T7 RNAP
- Activity in Mn^2+ buffer, or on poly(dT) under all conditions (poly(dC)): poorly active
- Relative rate of incorporation of rGTP vs non-complementary rNTPs (poly(dC)): 50 fold
- Relative rate of incorporation GTP/ATP (poly(dC)): >50
- Relative rate of incorporation GTP/CTP (poly(dC)): >50
- Relative rate of incorporation GTP/UTP (poly(dC)): >50
- Relative activity on poly(dI)·poly(dC) (poly(dI)·poly(dC); dGTP): .6
- Relative activity on poly(dI)·poly(dC) (poly(dI)·poly(dC); dGTP + rGMP): 4.4
- Relative activity on poly(dI)·poly(dC) (poly(dI)·poly(dC); [2]): 48 (47-50)

Substance: M635F: T7 RNAP M635 mutant
- 2′-group discrimination with respect to dNTPs and rNTPs [1]: did not affect 2′-group discrimination

Substance: Y639M: T7 RNAP with tyrosine at position 639 substituted by methionine
- Activity (pT75; 2′-F-ATP replacing ATP): 9.7 ± .20
- Activity (pT75; 2′-F-CTP replacing CTP): 47 ± .70
- Activity (pT75; 2′-F-UTP replacing UTP): 23 ± .72
- Activity (pT75; 2′-NH2-ATP replacing ATP): .92 ± .035
- Activity (pT75; 2′-NH2-CTP replacing CTP): 21 ± .38
- Activity (pT75; 2′-NH2-UTP replacing UTP): 3.6 ± .19
- Activity (pT75; 2′-dATP replacing ATP): 3.2 ± .11
- Activity (pT75; 2′-dCTP replacing CTP): 32 ± 1.1
- Activity (pT75; 2′-dUTP replacing UTP): 11 ± .46
- Activity (pT75; ATP): 51 ± 1.3
- Activity (pT75; CTP): 54 ± 3.9
- Activity (pT75; UTP): 50 ± 1.2

Substance: M635A: T7 RNAP M635 mutant
- 2′-group discrimination with respect to dNTPs and rNTPs [1]: did not affect 2′-group discrimination

Substance: M635Y: T7 RNAP M635 mutant
- 2′-group discrimination with respect to dNTPs and rNTPs [1]: did not affect 2′-group discrimination

— US20050069907A1, “Methods for using double-mutant RNA polymerases with reduced discrimination between non-canonical and canonical nucleoside triphosphates” (priority 2002, published 2005)
